From PMC10148624, “Discovery of diarylpyrimidine derivatives bearing piperazine sulfonyl as potent HIV-1 nonnucleoside reverse transcriptase inhibitors” (Communications Chemistry, 2023)
Converted amounts (≈) assume the structure as drawn. “And” between values parts separate entries of the source, which are not always exact repeats. Equal values may be shown once. Read-outs that look alike come from different tables or passages of the source. Marks after values point to notes of the source that are not given here.

Tests used:
[1] = test system: HIV-1 L100I; experiment: microbe, parasite or virus in culture; type: cell-based; conditions: Human immunodeficiency virus 1, MT4, read-out: EC50 L100I
Experimental: (§1) compounds were made directly in flat-bottomed 96-well microtiter trays by adding 100 μL medium to the 25 μL stock solution and transferring 25 μL of this solution to another well that contained 100 μL medium using a Biomek 3000 robot (Beckman Instruments, Fullerton, CA). Untreated control HIV- and mock-infected cell samples were included for each sample. HIV-1 WT strain (IIIB), HIV-1 drug-resistant strains including […]
(§2) (50% cell culture infectious dose) or culture medium was added to either the infected or mock-infected wells of the microtiter tray. Mock-infected cells were used to evaluate the effect of test compounds on uninfected cells in order to assess its cytotoxicity.
(§3) Exponentially growing MT-4 cells were centrifuged for 5 min at 1000 rpm and the supernatant was discarded.
(§4) 50 μL volumes were transferred to the microtiter tray wells. Five days after infection, the viability of mock- and HIV-infected cells was examined spectrophotometrically by […]
(§5) concentration of the test compound that reduced the viability of the mock-infected MT- […]

[2] = test system: HIV-1 E138K; experiment: microbe, parasite or virus in culture; type: cell-based; conditions: Human immunodeficiency virus 1, MT4, read-out: EC50 E138K
Experimental: as §1, §2, §3, §4, §5

[3] = physchem; type: physicochemical; conditions: pH 7, aqueous buffer, kinetic from dmso stock
Experimental: (§6) Section 7. Water solubility measurements
temperature overnight. The saturated solution was filtrated through a filter membrane
UV. The sample was performed in triplicate. For quantification, a model LC-20AT
The flow rate was 1.0 mL/min,
and injection volume was 20 μL. Aqueous concentration was determined by
Section 8. CYP enzyme inhibition assay

[4] = in vivo; conditions: male, Sprague-Dawley, rat, plasma
Experimental: (§15) SpragueDawley (SD) rats (180−200 g) were randomly divided into two groups to
(§16) receive oral administration (10 mg/kg) or intravenous (2 mg/kg). A solution of
(§17) compound 18b1 was prepared by dissolving in a mixture of polyethylene glycol (PEG)
(§18) 400/normal saline (70/30, V/V) before the experiment. Blood samples (200 μL of blood
(§19) each times) of the intravenous group were collected from the sinus jugular into
(§20) h after dosing, and blood samples (200 μL of blood each times) of the oral
(§21) used to determine the concentration of 18b1 in plasma. Briefly, 50 μL of plasma was
(§22) and a 20 μL aliquot was injected for LCMS/MS analysis. Standard curves for 18b1 in
(§23) blood were generated by the addition of S10 various concentrations of 18b1 together

[5] = target: CYP2C19 (Homo sapiens, UniProt P33261); experiment: in vitro
Description: (§7) Section 8. CYP enzyme inhibition assay […]
(§8) Agilent 1200 LC/MSD (Agilent, USA).

[6] = target: CYP2C9 (Homo sapiens, UniProt P11712); experiment: in vitro
Description: as §7, §8

[7] = test system: HIV-1 Y188L; experiment: Anti-HIV-1 activity against Y188L mutant strain, MTT method in MT-4 cells; type: cell-based; conditions: Human immunodeficiency virus 1, MT4, read-out: EC50 Y188L
Description: (§9) According to the anti-HIV-1(WT) results, the promising compounds 18a(1–5), 18b(1–5) and 18c1 were chosen to further evaluate their inhibitory potency against the prevalent HIV-1 mutations, including L100I, K103N, Y181C, Y188L, E138K, and F227L/V106A. […]. page 20:
(§10) or mock-infected wells of the microtiter tray. Mock-infected cells were used to evaluate
(§11) supernatant was discarded.
(§12) Five days after infection,
(§13) 4 cells by 50%. […]

[8] = test system: HIV-1 Y181C; experiment: Anti-HIV-1 activity against Y181C mutant strain, MTT method in MT-4 cells; type: cell-based; conditions: for EC50: Human immunodeficiency virus 1, MT4, read-out: EC50 Y181C, MT-4 cells, MTT method, mean ± SD, n ≥ 4
Description: as §10, §11, §12, §13

[9] = test system: HIV-1 WT (IIIB); experiment: microbe, parasite or virus in culture; type: cell-based; conditions: for EC50: Human immunodeficiency virus 1, IIIB
Experimental: (§14) The biological results were determined as EC50 (anti-HIV potency), CC50 (cytotoxicity) and SI (selectivity index, the ratio of CC50/EC50). […]
as §1, §2, §3, §4, §5

[10] = test system: HIV-1 K103N/Y181C double mutant (RES056); experiment: microbe, parasite or virus in culture; type: cell-based; conditions: for EC50: Human immunodeficiency virus 1, MT4, read-out: EC50 RES056
Experimental: as §14, §1, §2, §3, §4, §5

[11] = test system: HIV-1 K103N; experiment: Anti-HIV-1 activity against K103N mutant strain, MTT method in MT-4 cells; type: cell-based; conditions: Human immunodeficiency virus 1, MT4, read-out: EC50 K103N
Description: as §9, §10, §11, §12, §13

[12] = test system: HIV-1 F227L/V106A; experiment: Anti-HIV-1 activity against F227L/V106A mutant strain, MTT method in MT-4 cells; type: cell-based; conditions: for EC50: Human immunodeficiency virus 1, MT4, read-out: EC50 F227L/V106A
Description: as §9, §10, §11, §12, §13

[13] = target: T1, WT HIV-1 RT (Human immunodeficiency virus type 1 group M subtype B, UniProt P04585); experiment: biochemical
T1 construct: purchased Roche
Experimental: Section 4. HIV-1 RT inhibition assays
A reverse transcriptase (RT) assay kit produced by Roche was selected for the RT inhibition assay.3 All the reagents for performing the RT reaction came with the kit and the ELSIA procedures for RT inhibition assay was carried out following the description in the kit protocol. Briefly, the reaction mixture containing template/primer complex, viral nucleotides (dNTPs) and RT in the incubation buffer with or without inhibitors was incubated for 1 h at 37 °C . After that, the reaction mixture was transferred to a streptavidine coated microtiter plate and incubated for another 1 h at 37 °C to make sure retranscriptional cDNA chain that consisted biotin labeled dNTPs bound to streptavidine. Then unbound dNTPs were removed using washing buffer and anti-DIG-POD working solution was added. After incubation for 1 h at 37 °C , the DIG-labeled dNTPs incorporated in cDNA were bound to the anti-DIG-POD antibody. The unbound

[14] = in vitro; conditions: human
Experimental: as §14, §1, §2, §3, §4, §5

[15] = target: CYP2D6 (Homo sapiens, UniProt P10635); experiment: in vitro; conditions: for IC50 at 10 min: human, microsomes, IC50 CYP2D6
Experimental: Fig. S3 Decomposition of the binding free energy (per-residue) into contributions from electrostatic energy, vdw energy, polar solvation energy, and non-polar solvation energy. a K103N-18b1. b […]
as §6
Water solubility was measured in phosphate buffer at pH 7.0 by using an HPLC-UV method.17 Compounds were initially dissolved in DMSO at 10 mg/mL 10 μL of this stock solution was spiked into purified water (1 mL) with the final DMSO concentration being 1%. The mixture was ultrasonic for 2 h at room temperature and restored at room temperature overnight. The saturated solution was filtrated through a filter membrane (pore size = 0.22 μm) and transferred to other Eppendorf tubes for analysis by HPLC-UV. The sample was performed in triplicate. For quantification, a model LC-20AT HPLC-UV (SHIMADZU) system was used with an Inertsil ® ODS-SP-C18 column (150 mm × 4.6 mm, 5 μm) and MeOH/water as eluant. The flow rate was 1.0 mL/min, and injection volume was 20 μL. Aqueous concentration was determined by comparison of the peak area of the saturated solution with a standard curve plotted peak area versus known concentrations, which were prepared by solutions in MeOH at 200, […]
as §7
Section 9. Pharmacokinetics studies […]
approval from the Animal Ethical and Welfare Committee (AEWC). Ten male […]
Blood samples (200 μL of blood
Briefly, 50 μL of plasma was […]
tube, which was centrifuged at 3000g for 10 min. The supernatant layer was collected […]
Standard curves for 18b1 in […]
with an internal standard to blank plasma. Then all samples were quantified with an […]

[16] = In vivo pharmacokinetics in Sprague-Dawley rats; conditions: SD rat, 2.0 mg/kg i.v., mean ± SD, n = 3
Experimental: as §15, §16, §17, §18, §19, §20, §21, §22, §23

[17] = target: CYP3A4 (Homo sapiens, UniProt P08684); experiment: in vitro; conditions: microsomes
Description: as §7, §8

[18] = target: T2, CYP1A2 (Homo sapiens, UniProt P05177); experiment: in vitro; conditions: microsomes
T2 sequence (P05177 1-516): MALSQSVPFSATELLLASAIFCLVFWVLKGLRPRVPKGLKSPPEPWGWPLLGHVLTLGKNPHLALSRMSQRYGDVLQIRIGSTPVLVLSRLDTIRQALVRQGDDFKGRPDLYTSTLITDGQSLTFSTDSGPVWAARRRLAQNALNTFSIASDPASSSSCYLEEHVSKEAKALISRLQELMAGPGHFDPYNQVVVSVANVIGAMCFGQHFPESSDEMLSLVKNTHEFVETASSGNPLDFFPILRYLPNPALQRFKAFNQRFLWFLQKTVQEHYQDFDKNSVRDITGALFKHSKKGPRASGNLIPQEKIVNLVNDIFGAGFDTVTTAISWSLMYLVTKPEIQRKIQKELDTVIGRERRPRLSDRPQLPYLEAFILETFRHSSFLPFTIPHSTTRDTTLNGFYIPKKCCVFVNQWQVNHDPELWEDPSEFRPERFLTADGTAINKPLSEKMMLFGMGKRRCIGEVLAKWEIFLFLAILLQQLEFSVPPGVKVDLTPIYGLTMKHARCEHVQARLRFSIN
Description: as §7, §8

[19] = at pH 7.0; cited from earlier work
[20] = parameters: method as in PMID 24008177; conditions: cited from earlier work
[21] = selectivity index, ratio of CC50/EC50

Sequence of CYP2D6 (P10635 whole entry): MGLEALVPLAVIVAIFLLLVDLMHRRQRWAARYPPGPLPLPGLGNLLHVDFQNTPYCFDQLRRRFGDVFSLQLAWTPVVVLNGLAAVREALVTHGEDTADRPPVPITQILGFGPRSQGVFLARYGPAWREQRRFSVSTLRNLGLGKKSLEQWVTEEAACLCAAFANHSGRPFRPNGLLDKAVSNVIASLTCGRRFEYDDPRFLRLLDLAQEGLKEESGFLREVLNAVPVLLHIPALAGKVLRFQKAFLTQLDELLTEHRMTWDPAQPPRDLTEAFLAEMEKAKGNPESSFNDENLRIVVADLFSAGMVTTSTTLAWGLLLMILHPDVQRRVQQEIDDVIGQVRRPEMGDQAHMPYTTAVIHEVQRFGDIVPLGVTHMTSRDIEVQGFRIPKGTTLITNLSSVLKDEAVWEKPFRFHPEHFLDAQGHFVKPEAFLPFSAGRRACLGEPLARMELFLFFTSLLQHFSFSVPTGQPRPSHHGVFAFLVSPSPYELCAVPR
Sequence of CYP2C9 (P11712 whole entry): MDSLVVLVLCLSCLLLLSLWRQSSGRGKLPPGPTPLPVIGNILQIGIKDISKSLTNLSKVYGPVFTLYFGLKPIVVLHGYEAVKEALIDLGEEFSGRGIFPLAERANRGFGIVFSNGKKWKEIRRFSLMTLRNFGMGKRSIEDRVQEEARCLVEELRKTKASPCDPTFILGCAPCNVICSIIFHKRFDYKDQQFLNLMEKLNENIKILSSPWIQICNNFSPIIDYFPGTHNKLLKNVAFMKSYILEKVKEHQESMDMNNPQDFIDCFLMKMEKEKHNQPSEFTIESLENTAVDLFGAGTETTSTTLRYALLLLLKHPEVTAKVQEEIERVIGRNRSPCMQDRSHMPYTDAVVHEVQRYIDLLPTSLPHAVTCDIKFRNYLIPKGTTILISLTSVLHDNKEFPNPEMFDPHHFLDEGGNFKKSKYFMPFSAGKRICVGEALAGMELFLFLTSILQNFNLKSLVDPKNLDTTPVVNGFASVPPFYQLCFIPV
Sequence of CYP2C19 (P33261 whole entry): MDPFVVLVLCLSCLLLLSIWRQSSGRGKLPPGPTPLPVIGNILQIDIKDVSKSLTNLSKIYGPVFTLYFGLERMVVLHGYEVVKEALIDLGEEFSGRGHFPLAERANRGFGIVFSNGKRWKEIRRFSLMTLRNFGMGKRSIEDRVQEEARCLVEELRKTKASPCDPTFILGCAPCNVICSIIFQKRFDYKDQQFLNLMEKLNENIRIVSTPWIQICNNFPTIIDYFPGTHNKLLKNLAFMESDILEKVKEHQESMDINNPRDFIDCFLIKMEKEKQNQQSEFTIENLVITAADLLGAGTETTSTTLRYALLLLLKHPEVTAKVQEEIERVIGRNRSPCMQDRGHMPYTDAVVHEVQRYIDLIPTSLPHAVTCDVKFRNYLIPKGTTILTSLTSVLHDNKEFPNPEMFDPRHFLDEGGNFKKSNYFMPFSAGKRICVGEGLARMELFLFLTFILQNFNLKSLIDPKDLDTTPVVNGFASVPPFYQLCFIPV
Sequence of CYP3A4 (P08684 whole entry): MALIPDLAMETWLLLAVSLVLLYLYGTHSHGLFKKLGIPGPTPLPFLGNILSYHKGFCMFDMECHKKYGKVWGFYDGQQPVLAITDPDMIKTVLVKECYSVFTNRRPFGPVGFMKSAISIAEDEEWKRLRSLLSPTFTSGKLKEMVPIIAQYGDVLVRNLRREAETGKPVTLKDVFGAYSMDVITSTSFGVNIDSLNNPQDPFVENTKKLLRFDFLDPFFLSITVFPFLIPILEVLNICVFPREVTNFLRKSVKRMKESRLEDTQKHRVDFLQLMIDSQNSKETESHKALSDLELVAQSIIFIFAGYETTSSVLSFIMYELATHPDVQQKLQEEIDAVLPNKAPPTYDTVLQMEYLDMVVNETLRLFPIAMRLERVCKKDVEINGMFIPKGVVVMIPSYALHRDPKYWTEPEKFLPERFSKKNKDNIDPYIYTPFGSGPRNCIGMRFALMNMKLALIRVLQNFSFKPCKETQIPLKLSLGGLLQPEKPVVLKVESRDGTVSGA

Cc1cc(/C=C/C#N)cc(C)c1Oc1ccnc(Nc2ccc(N3CCN(S(C)(=O)=O)CC3)c(C#N)c2)n1 [Compound 18b1]
EC50 [1]: 3.7 ± 0.62 nM
EC50 [2]: 6.4 ± 0.54 nM
solubility [3]: 13.5 ± 0.49 µg/mL (≈ 25.4 µM)
AUC(0-inf) ([4]; iv, 2 mg/kg): 792 ± 74.9 ng·h/mL
AUC(0-t) ([4]; iv, 2 mg/kg): 785 ± 73.9 ng·h/mL
Cmax ([4]; iv, 2 mg/kg): 1230 ± 96.1 ng/mL
Tmax ([4]; iv, 2 mg/kg): 0.08 h
clearance ([4]; iv, 2 mg/kg): 42.3 mL/min/kg
half-life ([4]; iv, 2 mg/kg): 2.42 ± 0.34 h
bioavailability ([4]; oral, 10 mg/kg): 1.34%
AUC(0-inf) ([4]; po, 10 mg/kg): 53.2 ± 8.32 ng·h/mL
AUC(0-t) ([4]; po, 10 mg/kg): 45.1 ± 12.9 ng·h/mL
Cmax ([4]; po, 10 mg/kg): 16.1 ± 6.59 ng/mL
Tmax ([4]; po, 10 mg/kg): 3.5 ± 2.78 h
half-life ([4]; po, 10 mg/kg): 3.05 ± 1.44 h
IC50 at 10 min ([5]; human, microsomes): 8000 nM
IC50 at 10 min ([6]; human, microsomes): 5300 nM
EC50 [7]: 740 ± 210 nM
EC50 [8]: 6.4 ± 0.67 nM
fold potency enhancement over ETR ([8]; Y181C strain, ratio of EC50): 2.8 fold
EC50 ([9]; MT4, read-out: EC50 IIIB): 1.4 ± 0.19 nM
SI IIIB [9, 21]: 7171
EC50 [10]: 93 ± 19 nM
SI RES056 [10, 21]: 110
EC50 [11]: 1.7 ± 0.32 nM
fold more potent than lead compound BH-11c ([12]; F227L/V106A strain, ratio of EC50): ~ 20 fold
EC50 [12]: 9.9 ± 1.6 nM
IC50 ([13]; read-out: IC50 against WT HIV-1 RT, inhibition of biotin deoxyuridine triphosphate incorporation into HIV-1 IIIB RT by 50%, mean ± SD, n = 2): 93 ± 17 nM
CC50 at 5 days [14]: 10200 ± 1820 nM
IC50 at 10 min [15]: > 10000 nM
V [16]: 8.81 L/kg and 8.81 ± 0.72 L/kg

Cc1cc(C#N)cc(C)c1Oc1nc(Nc2ccc(C#N)cc2)nc(N)c1Br [ETR, etravirine]
EC50 [2]: 18 ± 7.2 nM
IC50 ([5]; read-out: IC50 CYP2C19, human liver microsome, probe substrate S-mephenytoin): 496 nM
IC50 ([6]; read-out: IC50 CYP2C9, human liver microsome, probe substrate diclofenac): 277 nM
IC50 at 10 min [17]: > 10000 nM
IC50 at 10 min [18]: > 10000 nM
EC50 [7]: 25 ± 7.6 nM
EC50 [8]: 18 ± 3.8 nM
water solubility [19]: <1^e μg/mL
EC50 ([9]; MT4, MT-4 cells, MTT method, mean ± SD, n ≥ 4, read-out: EC50 IIIB): 3.3 ± 0.38 nM
EC50 [10]: 76 ± 25 nM
oral bioavailability (F) [20]: undetectable
EC50 [11]: 4.3 ± 1 nM
EC50 [12]: 25 ± 7.2 nM
IC50 [13]: 1350 ± 350 nM
IC50 at 10 min [15]: > 10000 nM
IC50 ([15]; read-out: IC50 CYP2D6, human liver microsome, probe substrate dextromethorphan): 12000 nM
